Experiments:
T cells = experiment: T-cell activation with immobilized anti-CD3 in the presence or absence of lenalidomide; format: cell-based; conditions: lenalidomide 5 or 50 μM, CD3 crosslinking by immobilized anti-CD3, 3 days; compared to no lenalidomide
Experimental: T cells were pre-incubated with assay medium or lenalidomide in the absence or presence of CD3 crosslinking by immobilized anti-CD3 for 3 days (as indicated on the x-axes), after which upregulation of CD69, CD25, PD-1 and LAMP-1 on CD4+ and CD8+ T cells was determined by flow cytometry. Data shown are geomean fluorescence intensities (FI) for four donors (each circle represents one condition for one donor). Pre-incubation conditions are shown on the x-axis.
(§1) Briefly, T cells were activated with immobilized anti-CD3 in the presence (5 or 50 μM) or absence of lenalidomide for 3 days. […] T cells that were activated in the presence or absence of lenalidomide were subsequently tested for their cytotoxic capacity in response to epcoritamab.

[1] = tested on: CD20-expressing Daudi cells; experiment: DuoBody-CD3xCD20-induced T-cell-mediated cytotoxicity assay with lenalidomide pre-treated T cells; format: cell-based; conditions: T cells pre-treated with lenalidomide and anti-CD3; Daudi target cells, E:T ratio 2:1
Experimental: T cells were incubated with (5 or 50 μM) or without lenalidomide in the absence or presence of immobilized anti-CD3 for 3 days. […] Data shown are average percentages cytotoxicity±SD of duplicates, normalized to medium control (no antibody, no lenalidomide).
as §1

[2] = tested on: highly refractory large B-cell lymphoma; conditions: monotherapy, n=157; cited from earlier work

With Nc1cccc2c1CN(C1CCC(=O)NC1=O)C2=O (stereo not shown) [lenalidomide, 3-(4-Amino-1-oxo-1,3-dihydro-2H-isoindol-2-yl) piperidine-2,6-dione] the “T-cell activation (upregulation of CD69, CD25 on the T cell surface, release of granzyme B and IFNγ)” value (T cells) was “increased T-cell activation”.
In the case of “epcoritamab: IgG1 bispecific CD3×CD20 antibody, heavy/light chains SEQ ID NOs: 24, 25 and 26, 27; CAS 2134641-34-0”, the “cytotoxic activity at lower antibody concentrations” value [1] is listed as “higher activity at lower epcoritamab concentrations”, the maximum percent cytotoxicity [1] is listed as “Higher maximum percent cytotoxicity” and the “complete response (CR) rate” value [2] is listed as 39%. The “median duration of response (DOR)” value [2] was 12 months, the “overall response rate (ORR)” value [2] was 63% and the safety profile [2] was “manageable safety profile”.
